Test results published in US7122675B2, “Gamma secretase inhibitors” (Schering Corporation, priority 2001, dated 2006).

Molecular target: T1, Gamma secretase (Homo sapiens, UniProt P49768)
T1 construct: endogenous in cells; host or cells: 293 cells (T-REx, clone pTRE.15), salt-washed membrane preparation; only the substrate SPC99-Lon is transfected
Assay: Gamma secretase activity assay (membranes of C99-expressing 293 cells, Aβ 40/Aβ 42 ECL immunoassay)
Format: biochemical
Conditions: membranes incubated at 37 C for 1 h; Aβ 40 and Aβ 42 measured by ECL immunoassay; read-out: IC50 (concentration of compound producing 50% inhibition of enzyme activity)
Method: Gamma secretase activity was determined as described by Zhang et a. (Biochemistry, 40 (16), 5049-5055, 2001). Activity is expressed either as a percent inhibition or as the concentration of compound producing 50% inhibition of enzyme activity.
Reagents. Antibodies W02, G2-10, and G2-11 were obtained from Dr. Konrad Beyreuther (University of Heidelberg, Heidelberg, Germany). W02 recognizes residues 5-8 of A peptide, while G2-10 and G2-11 recognize the specific C-terminal structure of A 40 and A 42, respectively. Biotin-4G8 was purchased from Senetec (St. Louis, Mo.). All tissue culture reagents used in this work were from Life Technologies, Inc., unless otherwise specified. Pepstatin A was purchased from Roche Molecular Biochemicals; DFK167 was from Enzyme Systems Products (Livermore, Calif.).
cDNA Constructs, Tissue Culture, and Cell Line Construction. The construct SPC99-Lon, which contains the first 18 residues and the C-terminal 99 amino acids of APP carrying the London mutation, has been described (Zhang, L., Song, L., and Parker, E. (1999) J. Biol. Chem. 274, 8966-8972). Upon insertion into the membrane, the 17 amino acid signal peptide is processed, leaving an additional leucine at the N-terminus of A. SPC99-Ion was cloned into the pcDNA4/TO vector (Invitrogen) and transfected into 293 cells stably transfected with pcDNA6/TR, which is provided in the T-REx system (Invitrogen). The transfected cells were selected in Dulbecco's modified Eagle's media (DMEM) supplemented with 10% fetal bovine serum, 100 units/mL penicillin, 100 µg/mL streptomycin, 250 µg/mL zeocin, and 5 µg/mL blasticidin (Invitrogen). Colonies were screened for A production by inducing C99 expression with […] tetracycline for 16-20 h and analyzing conditioned media with a sandwich immunoassay (see below). One of the clones, designated as pTRE.15, was used in these studies.
Membrane Preparation. C99 expression in cells was induced with […] tetracycline for 20 h. The cells were pretreated with […] 12-myristate 13-acetate (PMA) and […] brefeldin A (BFA) for 5-6 h at 37 C before harvesting. The cells were washed 3 times with cold phosphate-buffered saline (PBS) and harvested in buffer A containing 20 mM Hepes (pH 7.5), 250 mM sucrose, 50 mM KCl, 2 mM EDTA, 2 mM EGTA, and Complete protease inhibitor tablets (Roche Molecular Biochemicals). The cell pellets were flash-frozen in liquid nitrogen and stored at −70 C. before use.
To make membranes, the cells were resuspended in buffer A and lysed in a nitrogen bomb at 600 psi. The cell lysate was centrifuged at 1500 g for 10 min to remove nuclei and large cell debris. The supernatant was centrifuged at 100000 g for 1 h. The membrane pellet was resuspended in buffer A plus 0.5 M NaCl, and the membranes were collected by centrifugation at 200000 g for 1 h. The salt-washed membrane pellet was washed again in buffer A and centrifuged at 100000 g for 1 h. The final membrane pellet was resuspended in a small volume of buffer A using a Teflon-glass homogenizer. The protein concentration was determined, and membrane aliquots were flash-frozen in liquid nitrogen and stored at −70 C.
-Secretase Reaction and A Analysis. To measure -secretase activity, membranes were incubated at 37 C for 1 h in 50 L of buffer containing 20 mM Hepes (pH 7.0) and 2 mM EDTA. At the end of the incubation, Aβ 40 and Aβ 42 were measured using an electrochemiluminescence (ECL)-based immunoassay. Aβ 40 was identified with antibody pairs TAG-G2-10 and biotin-W02, while A 42 was identified with TAG-G2-11 and biotin-4G8. The ECL signal was measured using an ECL-M8 instrument (IGEN International, Inc.) according to the manufacturer's instructions. The data presented were the means of the duplicate or triplicate measurements in each experiment. The characteristics of -secretase activity described were confirmed using more than five independent membrane preparations.

Row | IC50 | SMILES
1 | 0.028 to 0.345 µM | COC(=O)c1ccc(CN(C2CCCN(C(=O)OC(C)(C)C)C2)S(=O)(=O)c2ccc(OC(F)(F)F)cc2)cc1 (centres unmarked) [Example 16]
2 | 0.028 to 0.345 µM | C[C@@H]1CN(C(=O)OC(C)(C)C)CCN1C(=O)N1CCC[C@H](N(c2cc(F)ccc2F)S(=O)(=O)c2ccc(Cl)cc2)C1 [Example 214]
3 | 0.028 to 0.345 µM | COC(=O)c1ccc(CN(C2CCCN(C(=O)OC(C)(C)C)C2)S(=O)(=O)c2ccc([N+](=O)[O-])cc2)cc1 (centres unmarked) [Example 17]
4 | 0.028 to 0.345 µM | O=C(N1CCN(CCO)CC1)N1CCCC(N(c2cc(F)ccc2F)S(=O)(=O)c2ccc(Cl)cc2)C1 (centres unmarked) [Example 182]
5 | 0.028 to 0.345 µM | O=C(N1CCCC(N(c2cc(F)ccc2F)S(=O)(=O)c2ccc(Cl)cc2)C1)N1CCCCC1CO (centres unmarked) [Example 192]
6 | 0.028 to 0.345 µM | COC(=O)c1ccc(CN(C2CCCN(C(=O)C(C)C)C2)S(=O)(=O)c2ccc(OC)cc2)cc1 (centres unmarked) [Example 68]
7 | 0.028 to 0.345 µM | COC(=O)c1ccc(CN(C2CCCN(C(=O)Cc3cccnc3)C2)S(=O)(=O)c2ccc(Cl)cc2)cc1 (centres unmarked) [Example 56]
8 | 0.028 to 0.345 µM | COC(=O)c1ccc(CN(C2CCCN(C(=O)OC(C)(C)C)C2)S(=O)(=O)c2ccc(C#N)cc2)cc1 (centres unmarked) [Example 18]
9 | 0.028 to 0.345 µM | COC(=O)c1ccc(CN(C2CCCN(C(=O)Cc3cc(F)cc(F)c3)C2)S(=O)(=O)c2ccc(C(F)(F)F)cc2)cc1 (centres unmarked) [Example 79]
10 | 0.028 to 0.345 µM | COC(=O)c1ccc(CN(C2CCCN(C(=O)OC(C)(C)C)C2)S(=O)(=O)c2ccc(C(F)(F)F)cc2)cc1 (centres unmarked) [Example 14]
11 | 0.028 to 0.345 µM | COC(=O)c1ccc(CN(C2CCCN(C(=O)OC(C)(C)C)C2)S(=O)(=O)c2ccc(-c3ccccc3)cc2)cc1 (centres unmarked) [Example 20]
12 | 0.028 to 0.345 µM | CC1CCCCN1C(=O)N1CCCC(N(c2cc(F)ccc2F)S(=O)(=O)c2ccc(Cl)cc2)C1 (centres unmarked) [Example 162]
13 | 0.028 to 0.345 µM | O=C(N1CCN(CCOCCO)CC1)N1CCCC(N(c2cc(F)ccc2F)S(=O)(=O)c2ccc(Cl)cc2)C1 (centres unmarked) [Example 181]
14 | 0.028 to 0.345 µM | CN(C)CC1CCCCN1C(=O)N1CCC[C@H](N(c2cc(F)ccc2F)S(=O)(=O)c2ccc(Cl)cc2)C1 (some centres unmarked) [Example 213]
15 | 0.028 to 0.345 µM | CC1COCC(C)N1C(=O)N1CCCC(N(c2cc(F)ccc2F)S(=O)(=O)c2ccc(Cl)cc2)C1 (centres unmarked) [Example 161]
16 | 0.028 to 0.345 µM | COC(=O)c1ccc(CN(C2CCCN(C(=O)Cc3ccccc3)C2)S(=O)(=O)c2ccc(Cl)cc2)cc1 (centres unmarked) [Example 62]
17 | 0.028 to 0.345 µM | CN1CCN(C(=O)N2CCCC(N(c3cc(F)ccc3F)S(=O)(=O)c3ccc(Cl)cc3)C2)CC1 (centres unmarked) [Example 180]
